Patent US9801960B2, “Probe for a biological specimen and labelling method and screening method using the probe” (CANON KABUSHIKI KAISHA, priority 2008, dated 2017)

Key:
[1] = Excitation and fluorescence emission wavelength measurement; format: physicochemical; set-up: Stokes shift (λem − λex): unit not given here; conditions: aqueous solution: 10 mg/mL solution in DMSO diluted 500-fold with purified water
Description: It should be noted that the excitation wavelength and the fluorescence emission wavelength of the staining compound were determined by measuring an aqueous solution, which had been obtained by diluting 500-fold a 10 mg/mL solution of the staining compound in DMSO with purified water, with a fluorescence spectrophotometer FL 4500 manufactured by Hitachi High-Technologies Corporation.

[2] = Storage stability of staining compound solution in DMSO; format: physicochemical; conditions: 10 ng/mL in DMSO, closed glass container, normal temperature, 1 month; rate of change of absorbance and fluorescence intensity
Description: A 10 ng/mL solution of each of the staining compounds of Labelled Examples 1 to 78 and Labelled Comparative Examples 1 and 2 in DMSO was prepared, charged into a well-closed container made of glass, and left to stand still at normal temperature for 1 month. The absorbance and the fluorescence intensity at the time of the start of a storage stability test were measured at a given wavelength, and their rates of change were examined (+++: rates of change of the absorbance and the fluorescence intensity are less than 5%, and thus, the storage stability is highly excellent; ++: rates of change of the absorbance and fluorescence intensity are 5 to 15%, and thus, the storage stability is excellent; and −: rates of change of the absorbance and fluorescence intensity are more than 15%, and thus, the storage stability is poor).

[3] = tested on: Zebrafish juveniles; assay: In vivo labelling of Zebrafish juveniles with probe for biological specimen; set-up: key to Staining property: +++: stained; −: no stained; key to Fluorescence sensitivity: +++: strongly observed; ++: moderately observed; +: weakly observed; −: no stained; conditions: 1 hour; for Site(s) to be labelled: 10 ng/mL in water, stereoscopic microscope; for Fluorescence sensitivity / Staining property: 10 ng/mL; for Fluorescence sensitivity: fluorescence intensity visually evaluated; for Staining property: visually evaluated
Description: Five juveniles of Zebrafish were put into one well of a well plate together with rearing water. After rearing water had been discharged, 1 mL of distilled water was added to the well, and a solution of a staining compound (1) in DMSO was further added thereto so as to achieve a concentration of 10 ng/mL, followed by gentle stirring (pipetting). Further, Egg Water was prepared by dissolving artificial seawater SEALIFE (manufactured by Marinetech Co., Ltd.) in distilled water at a concentration of 60 mg/L. After the whole had been left to stand for 1 hour, distilled water in the well was discharged and replaced by 1 mL of fresh Egg Water. In addition, such an operation that Egg Water was discharged and replaced by 1 mL of fresh Egg Water was repeated twice. One of the juveniles was taken out from the well onto a dish, supplemented with 100 μL of a 3% methylcellulose aqueous solution to fix the movement of the juvenile, and photographed with a stereoscopic microscope (MZ10F: manufactured by Leica Microsystems K.K.).
The same operation as that in Example 1 was performed except that the staining compound (1) used in Example 1 was changed to any one of the staining compounds described in Table 1.
The same operation as that in Example 1 was performed except that the staining compound (1) used in Example 1 was changed to any one of indocyanine green (ICG) and fluorescein.
The staining property of each of the staining compounds of Labelled Examples 1 to 78 and Labelled Comparative Examples 1 and 2 was visually evaluated (+++: stained and −: no stained).
The fluorescence intensity of each of the staining compounds of Labelled Examples 1 to 78 and Labelled Comparative Examples 1 and 2 was visually evaluated (+++: strongly observed, ++: moderately observed, +: weakly observed, and −: no stained).

Excitation wavelength λex [1] | Fluorescence emission wavelength λem [1] | Stokes shift (λem − λex) [1] | SMILES | Storage stability [2] | Site(s) to be labelled [3] | Fluorescence sensitivity [3] | Staining property [3]
531 nm | 633 nm | 102 | O=C(O)CN1C(=O)/C(=C\c2ccc3c(c2)C2CCCC2N3c2ccccc2)SC1=S (centres unmarked) [Dye 1] | +++ (rates of change of the absorbance and the fluorescence intensity are less than 5%, and thus, the storage stability is highly excellent) | blood vessel, gallbladder, and gastrointestinal | +++ | +++
525 nm | 607 nm | 82 | O=C(O)CN1C(=O)/C(=C\c2ccc3c(c2)C2CCCC2N3Cc2ccccc2)SC1=S (centres unmarked) [Dye 3] | +++ (rates of change of the absorbance and the fluorescence intensity are less than 5%, and thus, the storage stability is highly excellent) | blood vessel, gallbladder, and gastrointestinal | +++ | +++
482 nm | 580 nm | 98 | N#C/C(=C\c1ccc2c(c1)C1CCCC1N2Cc1ccccc1)C(=O)O (centres unmarked) [Dye 5] | +++ (rates of change of the absorbance and the fluorescence intensity are less than 5%, and thus, the storage stability is highly excellent) | liver, gallbladder, and gastrointestinal tract | ++ | +++
498 nm | 601 nm | 103 | N#C/C(=C\c1ccc2c(c1)C1CCCC1N2c1ccc(C=C(c2ccccc2)c2ccccc2)cc1)C(=O)O (centres unmarked) [Dye 7] | +++ (rates of change of the absorbance and the fluorescence intensity are less than 5%, and thus, the storage stability is highly excellent) | blood vessel and liver | +++ | +++
477 nm | 567 nm | 90 | N#C/C(=C\c1ccc2c(c1)C1CCCC1N2c1ccccc1)C(=O)O (centres unmarked) [Dye 13] | +++ (rates of change of the absorbance and the fluorescence intensity are less than 5%, and thus, the storage stability is highly excellent) | liver and gastrointestinal tract | ++ | +++
394 nm | 554 nm | 160 | N#C/C(=C\c1cc(Br)c2c(c1)C1CCCC1N2Cc1cccc(Br)c1)C(=O)O (centres unmarked) [Dye 25] | +++ (rates of change of the absorbance and the fluorescence intensity are less than 5%, and thus, the storage stability is highly excellent) | gastrointestinal tract | ++ | +++

Further lines, the molecule ahead of its results:

SMILES | Excitation wavelength λex [1] | Fluorescence emission wavelength λem [1] | Stokes shift (λem − λex) [1] | Storage stability [2] | Site(s) to be labelled [3] | Fluorescence sensitivity [3] | Staining property [3]
O=C(O)CN1C(=O)/C(=C\c2cc(Br)c3c(c2)C2CCCC2N3c2ccc(Br)cc2)SC1=S (centres unmarked) [Dye 2] | 482 nm | 609 nm | 127 | +++ (rates of change of the absorbance and the fluorescence intensity are less than 5%, and thus, the storage stability is highly excellent) | blood vessel, liver, and gastrointestinal tract | +++ | +++
O=C(O)Cn1c(=O)/c(=C\c2ccc3c(c2)C2CCCC2N3Cc2ccccc2)s/c1=C1/SC(=S)N(Cc2ccccc2)C1=O (centres unmarked) [Dye 11] | 588 nm | 668 nm | 80 | +++ (rates of change of the absorbance and the fluorescence intensity are less than 5%, and thus, the storage stability is highly excellent) | blood vessel, liver, and gastrointestinal tract | ++ | +++
COc1ccc2cc(N3c4ccc(/C=C5\C(=O)N(c6ccccc6)N=C5C(=O)O)cc4C4CCCC43)ccc2c1 (centres unmarked) [Dye 14] | 610 nm | 675 nm | 65 | +++ (rates of change of the absorbance and the fluorescence intensity are less than 5%, and thus, the storage stability is highly excellent) | gallbladder | ++ | +++
CSc1ccc(N2c3ccc(/C=C4/SC(=S)N(CC(=O)O)C4=O)cc3C3CCCC32)cc1 (centres unmarked) [Dye 17] | 527 nm | 636 nm | 109 | +++ (rates of change of the absorbance and the fluorescence intensity are less than 5%, and thus, the storage stability is highly excellent) | blood vessel, liver, and gastrointestinal tract | +++ | +++
COc1ccc2cc(N3c4ccc(/C=C5/SC(=S)N(CCC(=O)O)C5=O)cc4C4CCCC43)ccc2c1 (centres unmarked) [Dye 20] | 533 nm | 661 nm | 128 | +++ (rates of change of the absorbance and the fluorescence intensity are less than 5%, and thus, the storage stability is highly excellent) | blood vessel, liver, and gastrointestinal tract | +++ | +++
CC1=NN(c2ccccc2)C(=O)/C1=C\c1cc(Br)c2c(c1)C1CCCC1N2c1ccc(Br)cc1 (centres unmarked) [Dye 22] | 570 nm | 598 nm | 28 | ++ (rates of change of the absorbance and fluorescence intensity are 5 to 15%, and thus, the storage stability is excellent) | liver and gastrointestinal tract | +++ | +++
O=C(O)C[n+]1c(/C=C/c2ccc3c(c2)C2CCCC2N3Cc2ccccc2)sc2ccccc21 (centres unmarked) [Dye 24] | 566 nm | 611 nm | 45 | +++ (rates of change of the absorbance and the fluorescence intensity are less than 5%, and thus, the storage stability is highly excellent) | nose | +++ | +++
O=C(O)CCN1C(=O)/C(=C\c2cc(Br)c3c(c2)C2CCCC2N3c2ccc(Br)cc2)SC1=S (centres unmarked) [Dye 29] | 518 nm | 575 nm | 57 | +++ (rates of change of the absorbance and the fluorescence intensity are less than 5%, and thus, the storage stability is highly excellent) | blood vessel, gallbladder, and liver | +++ | +++
O=C1OC2(c3ccc(O)cc3Oc3cc(O)ccc32)c2ccccc21 [fluorescein, reference compound] | – | – | – | ++ (rates of change of the absorbance and fluorescence intensity are 5 to 15%, and thus, the storage stability is excellent) | – | ++ | +++
